According to patent US9540299B2, “MTOR-independent activator of TFEB for autophagy enhancement and uses thereof” (Hong Kong Baptist University, priority 2015, dated 2017):

Molecular target: T1, 3×Flag-TFEB (Homo sapiens, UniProt P19484)
T1 construct: expressed in transfected cells
T1 sequence (P19484 1-476): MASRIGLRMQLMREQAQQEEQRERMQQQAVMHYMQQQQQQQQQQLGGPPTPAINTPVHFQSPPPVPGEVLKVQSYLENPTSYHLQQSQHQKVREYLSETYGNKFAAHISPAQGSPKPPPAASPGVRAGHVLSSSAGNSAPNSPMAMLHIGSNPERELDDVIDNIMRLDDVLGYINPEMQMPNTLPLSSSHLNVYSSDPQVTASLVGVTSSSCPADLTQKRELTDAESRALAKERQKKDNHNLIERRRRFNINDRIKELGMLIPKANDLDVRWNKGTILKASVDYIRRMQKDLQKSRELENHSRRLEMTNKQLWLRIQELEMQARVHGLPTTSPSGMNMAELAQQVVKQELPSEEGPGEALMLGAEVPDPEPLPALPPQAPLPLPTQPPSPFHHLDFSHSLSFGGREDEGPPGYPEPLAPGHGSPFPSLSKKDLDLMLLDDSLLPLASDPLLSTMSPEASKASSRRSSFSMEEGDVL
Experiment: Nuclear translocation of Flag-TFEB in Hela cells stably expressing 3×Flag-TFEB (immunostaining, western blot)
Assay type: cell-based
Details: analogs 1 μM, curcumin 10 μM, 12 h, Torin 1 1 μM, 2 h
Protocol: Cells were treated with curcumin (Cur, 10 μM), A2, B3 and C1 (1 μM) for 12 h. […] Data is quantified by ImageJ software and is presented as mean±SD of three replicates for each treatment conditions. At least 1000 cells are analyzed in each treatment group. *p<0.05 vs. the control (0.1% DMSO). FIG. 4C is a western blot showing the expression of endogenous TFEB. […] Data are presented as the mean±SD from three independent experiments. *p<0.05 vs. the control (0.1% DMSO). FIG. 4E is fluorescence images showing expression of 3×Flag-TFEB in Hela cells having treated with Cur (10 μM), A2, B3 and C1 (1 μM) for 12 h. Torin 1 (1 μM) treatment for 2 h is used as a positive control. Cells were fixed and stained with anti-Flag antibody. […] FIG. 4G is the western blot showing the expression of Flag-tagged TFEB in the cytosolic (Cyt.) and nuclear (Nuc.) fractions. ACTB and H3F3A (H3 histone, family 3A) are used as loading control of cytoplasmic and nuclear fraction, respectively. FIG. 4H is showing the relative intensity of TFEB in the cytosolic and nuclear fractions. Data are presented as the mean±SD from three independent experiments. *p<0.05 vs. the control (0.1% DMSO).
HeLa cells stably expressing 3×Flag-TFEB are treated with curcumin analogs E2, E3 and E4 (1 μM) for 12 hours. Torin 1 (1 μM) treatment for 2 hours is used as a positive control. Cells are fixed and stained with anti-Flag antibody (red) and DAPI (blue) (FIG. 18A). TFEB translocate into nucleus are quantified (FIG. 18B). Quantification data are presented as mean±SD of three replicates in a representative experiment. At least 500 cells are analyzed in each treatment group.
HeLa cells stably expressing 3×Flag-TFEB are treated with curcumin analogs E2, E3 and E4 (1 μM) for 12 hours. Torin 1 (1 μM) treatment for 2 hours is used as a positive control. The expression of TFEB in the cytosolic (Cyt.) and nuclear (Nuc.) fractions are determined by western blotting (FIG. 19A) and quantified (FIG. 19B). TUBB (β-tubulin) and H3F3A (H3 histone, family 3A) are used as loading control of cytoplasmic and nuclear fraction respectively. Quantification data are presented as the mean±SD from three independent experiments. *p<0.05 vs. the control (0.1% DMSO).
N2a, Hela and Hela cells stably expressing 3×-Flag-TFEB are cultured in DMEM supplemented with 10% FBS. SH-SY5Y cells are cultured in DMEM/F12 supplemented with 10% FBS. For drug treatment, the full medium is replaced by fresh Opti-MEM I and then the compounds (in 0.1% DMSO) are added to the cells and incubated for 12 h. Inducible PC12 cells overexpressing SNCA (WT and A53T) (a kind gift from Prof. David C. Rubinsztein at Cambridge University) are grown in DMEM supplemented with 10% horse serum, 5% FBS, 50 μg/ml G418, and 150 μg/ml hygromycin B at 37° C., 10% CO2. Cells are treated with 2 μg/ml doxycycline (Dox) for 24 h to induce SNCA expression. The full medium is changed to Opti-MEM I containing the testing compounds for another 48 h.
Cells are lysed on ice in 1× Lysis Buffer (9803, Life Technologies) with complete protease inhibitor mixture (04693124001, Roche Applied Science). Animal tissues are homogenized in nine volumes of ice-cold PBS supplemented with protease inhibitors. Cytosolic and nuclear fractions are isolated using protocols similar to those described previously. Anti-Flag or TFEB antibody is added to the whole cell lysates and Dynabeads® Protein G (10003D, Life Technologies) is used for immunoprecipitation. Proteins are separated by 10-15% SDS-PAGE, transferred, and blotted with the antibodies described. The blots are then incubated with secondary antibodies or the Clean-Blot IP Detection Reagent (21230, Thermo Scientific) at room temperature for 1 h. The protein signals are detected by ECL kit (32106, Pierce) and quantified using ImageJ software.
Cells are seeded on coverslips placed in 24-well plates. […]

| SMILES | nuclear translocation of Flag-TFEB |
| --- | --- |
| O=C(/C=C/c1ccc(O)cc1)/C=C/c1ccc(O)cc1 [B3, 1,5-bis(4-hydroxyphenyl)penta-1,4-dien-3-one] | no effects |
| COc1ccccc1/C=C/C(=O)/C=C/c1ccccc1OC [C1, 1,5-bis(2-methoxyphenyl)penta-1,4-dien-3-one] | significantly promotes |
| O=C(/C=C/c1cccc(C(F)(F)F)c1)/C=C/c1cccc(C(F)(F)F)c1 [A2, 1,5-bis(3-(trifluoromethyl)phenyl)penta-1,4-dien-3-one] | no effects |

Further lines, results first:

| nuclear translocation of Flag-TFEB | SMILES |
| --- | --- |
| significantly promote | O=C(/C=C/c1ccccc1I)/C=C/c1ccccc1I [E4] |
| no effects | COc1cc(/C=C/C(=O)CC(=O)/C=C/c2ccc(O)c(OC)c2)ccc1O [curcumin, Curcumin, reference compound] |
| significantly promote | O=C(/C=C/c1ccccc1Cl)/C=C/c1ccccc1Cl [E2] |
| significantly promote | O=C(/C=C/c1ccccc1Br)/C=C/c1ccccc1Br [E3] |
